Results: US20100268187A1, “PACKAGING FOR SIROLIMUS AND COMPOSITION THEREOF” (Ranbaxy Laboratories Limited, priority 2009, published 2010)

Assay: Stability studies of sirolimus particles packed in vacuum sealed impermeable container at 25° C. and 60% RH, impurities by gradient HPLC
Type: physicochemical
Conditions: three months
From the text: Sirolimus particles (d90-4.1 micron) were packed in a bag made up of laminate having a polyester and a polyethylene layer wherein the layers have a thickness of 12 micron and 75 micron, respectively. The bag was sealed under vacuum. The vacuum sealed bag was put into second bag made up of laminate having polyester, aluminium foil, polyester and polyethylene layer wherein the layers have a thickness of 12 micron, 12 micron, 12 micron and 75 microns, respectively. The second bag was sealed under vacuum and was subjected to stability studies at 25° C. and 60% RH for three months.
Quantitative determination was carried out using Gradient High Performance Liquid Chromatography with a mixture of ammonium phosphate buffer and an organic phase (acetonitrile and tetrahydrofuran) as the mobile phase, ACE C18, HL, 5 μm column as a stationary phase and a UV detector.

Stability on storage: stable
Compound: CO[C@H]1C[C@@H]2CC[C@@H](C)[C@@](O)(O2)C(=O)C(=O)N2CCCC[C@H]2C(=O)O[C@H]([C@H](C)C[C@@H]2CC[C@@H](O)[C@H](OC)C2)CC(=O)[C@H](C)/C=C(\C)[C@@H](O)[C@@H](OC)C(=O)[C@H](C)C[C@H](C)/C=C/C=C/C=C/1C [sirolimus particles, Sirolimus]
